From patent US10932480B2, “Animal feed additive containing diurnosid and/or cestrumosid” (priority 2016, dated 2021)

System: broilers
Test: Field test in broilers, diurnoside/cestrumoside plus vitamin D3 metabolites (Example 1)
Format: in vivo
Settings: in combination with diurnoside or cestrumoside versus control groups with calcitriol or calcifediol alone, FIG. 1
Text: In a commercial boiler feeding operation, five stalls each with approximate 43,000 animals were compared with regard to the incidence of osteochondrosis/dyschondroplasia in a field test. All the stalls were fed using conventional boiler fattening feed, distributed under the brand name GeflügelmastKorn® (Company: Garant Tiernahrung [Garant Animal Nutrition]), wherein no further additives were used in stall K1 (controls).
For stall K2 (control group calcitriol), a feed additive containing 20 ppm calcitriol in an amount of 150 ppm (based on feed with 88% dry solids) was mixed into the broiler fattening feed.
For stall K2 (control group calcifediol), a feed additive containing 200 ppm calcifediol in an amount of 150 ppm (based on feed with 88% dry solids) was mixed into the broiler fattening feed.
For stall V1 (experimental group with diurnoside plus calcitriol), the feed additive according to the invention, containing 100 ppm diurnoside and 10 ppm calcitriol was mixed into the boiler fattening feed in an amount of 150 ppm (based on feed with 88% dry solids).
For the stall V2 (experimental group with cestrumoside plus calcifediol), the feed additive according to the invention, containing 20 ppm cestrumoside and 100 ppm calcifediol in an amount of 150 ppm (based on feed with 88% dry solids) was mixed into the broiler fattening feed. […]

Compound | effective doses for calcitriol and calcifediol
C=C1CC[C@H](O)C/C1=C/C=C1\CCC[C@]2(C)[C@@H]([C@H](C)CCCC(C)(C)O)CC[C@@H]12 [calcifediol] | reduced by one-half
C=C1/C(=C\C=C2/CCC[C@]3(C)[C@@H]([C@H](C)CCCC(C)(C)O)CC[C@@H]23)C[C@@H](O)C[C@@H]1O [calcitriol] | reduced by one-half
